Measured values from paper PMC8911579, “(−)-Naringenin 4′,7-dimethyl Ether Isolated from Nardostachys jatamansi Relieves Pain through Inhibition of Multiple Channels” (Molecules, 2022).

Key:
[1] = molecular target: Nav1.8 channel (Homo sapiens, UniProt Q9Y5Y9); assay: whole-cell patch-clamp, Nav1.8 stably expressed in HEK293 cells
[2] = test system: delayed rectifier potassium currents (IK) in DRG neurons; assay: whole-cell patch-clamp, delayed rectifier potassium currents in DRG neurons; assay type: cell-based, mouse
Description: (§1) The currents in mouse DRG neurons can be separated into IA and IK. They could be distinguished by applying voltage steps from a holding potential of −50 mV, at which IA was almost completely inactivated, while IK remained unchanged. Thereby, IA could be separated by subtracting IK from the total potassium currents. According to these electrophysiological characteristics, the effects of (−)-NRG-DM on potassium currents were examined (Figure 5A). […] Additionally, the effects of (−)-NRG-DM on the kinetics of the Kv channels were further characterized. The Kv currents were elicited by multiple 1500 ms depolarization pulses ranging from −80 mV to +90 mV in 10 mV increments from a holding potential of −80 mV. […] The values of V1/2 in the absence and presence of 10 µM (−)-NRG-DM were −6.43 ± 1.21 mV and −8.08 ± 2.02 mV, respectively (Figure 5D).
(§2) Dorsal root ganglia (DRG) were dissected from male C57BL/6 mice aged 4~6 weeks. The ganglia were first cut into small pieces and then digested at 37 °C for 20 min in DMEM containing 1 mg/mL collagenase type I and 0.25 mg/mL trypsin (Sigma-Aldrich). Subsequently, the digested small fragments were terminated and resuspended with DMEM/F12 growth medium (Gibco) supplemented with 10% fetal bovine serum (FBS) (Gibco). […]

[3] = test system: TTX-resistant (TTX-R) currents in small-diameter DRG neurons; assay type: cell-based, mouse; details: 300 nM TTX
[4] = molecular target: T1, TRPA1 channels (Homo sapiens, UniProt O75762); assay: whole-cell patch-clamp, TRPA1 stably expressed in HEK293 cells; assay type: cell-based; details: 30 µM
T1 construct: expressed in transfected cells

[5] = test system: mustard oil-induced colorectal pain; assay: mustard oil-induced mouse colorectal pain model; assay type: in vivo, C57BL/6 mice; details: 30 min observation
Description: The dose-dependent relief of somatic pain in the formalin model prompted us to ask whether it could attenuate the visceral pain. Thereby, we constructed the mustard oil-induced mouse colorectal pain model as previously described. […] As those observed in intraplantar formalin-induced pain, (−)-NRG-DM dose dependently relieved intracolonic mustard oil-caused writhing (Figure 3A). After intraperitoneal application of 30 mg/kg and 50 mg/kg (−)-NRG-DM, the writhing number reduced by approximately 60% and 80%, respectively (Figure 3B).
Male C57BL/6 mice, weighing 23~25 g, were randomly assigned into 3 groups (n = 10 for each group) and placed in a transparent observation chamber for at least 20 min prior to the experiment. Mice were intraperitoneally administrated with vehicle or (−)-NRG-DM (30 or 50 mg/kg) 30 min before the injection of diluted mustard. Subsequently, 50 µL of diluted mustard oil solution (0.75% in 70% ethanol) was intracolonically administrated and the number of pain responses was counted for 30 min. In the present study, postures defined as pain-related behaviors were in agreement with previous descriptions: (1) licking of the abdomen, (2) stretching the abdomen, (3) squashing of lower abdomen against the floor, (4) abdominal wall retractions.

[6] = pharmacokinetic study, plasma concentration after intraperitoneal administration; assay type: in vivo, ICR mice
Description: The pharmacokinetic study was performed in male ICR mice weighted 20 ± 2 g. The mice were fasted for 12 h before intraperitoneal administration of (−)-NRG-DM at 50 mg/kg. Blood samples (0.5 mL) were collected at 0.5, 1, and 1.5 h from the abdominal aorta into the heparinized tubes after drug administration. The plasma was separated by centrifugation (11,000 rpm for 5 min) and then stored at −80 °C until analyzed. Plasma samples (20 μL) were treated with the addition of the internal standard solution (20 μL) and acetonitrile (300 μL), then vortexed for 15 min (1000 rpm, RT), and centrifuged of 15 min (3700 rpm, 4 °C). The supernatants were collected for analysis using LC−MS/MS. The data were processed using Analyst software version 1.6.3 (Sciex, ON, Canada).

[7] = test system: transient outward potassium currents (IA) in DRG neurons; assay: whole-cell patch-clamp, transient outward potassium currents in DRG neurons; assay type: cell-based; details: Mus musculus, DRG neuron; n = 5
Description: as §1, §2

[8] = test system: motor coordination in mice; assay: rotarod test (motor impairment / neurotoxicity); assay type: in vivo, ICR mice
Description: To exclude possible non-specific muscle relaxant or sedative effects, the effects of (−)-NRG-DM on motor performance were evaluated in the rotarod test.
To determine the neurotoxicity effects of (−)-NRG-DM, the standardized rotarod test was conducted in male ICR mice weighted 20 ± 2 g. The mice were divided at random into 4 groups (n = 10 for each group). The mice were placed on a rotarod appliance (YLS-4C, Bio-will, Shanghai, China) with a rod of 3 cm diameter, rotating at a constant speed of 6 rpm. The day before the compound test, all mice were pre-trained and only the animals able to remain on the rod for at least 1 min every time in three consecutive trials (3 min) were retained. During the test, the mice were measured in the rotarod test 0.5 h and 1 h after intraperitoneal administration of (−)-NRG-DM. The animals unable to remain on the rod for 3 consecutive periods were considered motor coordination impaired.

Sequence of Nav1.8 channel (Q9Y5Y9 whole entry): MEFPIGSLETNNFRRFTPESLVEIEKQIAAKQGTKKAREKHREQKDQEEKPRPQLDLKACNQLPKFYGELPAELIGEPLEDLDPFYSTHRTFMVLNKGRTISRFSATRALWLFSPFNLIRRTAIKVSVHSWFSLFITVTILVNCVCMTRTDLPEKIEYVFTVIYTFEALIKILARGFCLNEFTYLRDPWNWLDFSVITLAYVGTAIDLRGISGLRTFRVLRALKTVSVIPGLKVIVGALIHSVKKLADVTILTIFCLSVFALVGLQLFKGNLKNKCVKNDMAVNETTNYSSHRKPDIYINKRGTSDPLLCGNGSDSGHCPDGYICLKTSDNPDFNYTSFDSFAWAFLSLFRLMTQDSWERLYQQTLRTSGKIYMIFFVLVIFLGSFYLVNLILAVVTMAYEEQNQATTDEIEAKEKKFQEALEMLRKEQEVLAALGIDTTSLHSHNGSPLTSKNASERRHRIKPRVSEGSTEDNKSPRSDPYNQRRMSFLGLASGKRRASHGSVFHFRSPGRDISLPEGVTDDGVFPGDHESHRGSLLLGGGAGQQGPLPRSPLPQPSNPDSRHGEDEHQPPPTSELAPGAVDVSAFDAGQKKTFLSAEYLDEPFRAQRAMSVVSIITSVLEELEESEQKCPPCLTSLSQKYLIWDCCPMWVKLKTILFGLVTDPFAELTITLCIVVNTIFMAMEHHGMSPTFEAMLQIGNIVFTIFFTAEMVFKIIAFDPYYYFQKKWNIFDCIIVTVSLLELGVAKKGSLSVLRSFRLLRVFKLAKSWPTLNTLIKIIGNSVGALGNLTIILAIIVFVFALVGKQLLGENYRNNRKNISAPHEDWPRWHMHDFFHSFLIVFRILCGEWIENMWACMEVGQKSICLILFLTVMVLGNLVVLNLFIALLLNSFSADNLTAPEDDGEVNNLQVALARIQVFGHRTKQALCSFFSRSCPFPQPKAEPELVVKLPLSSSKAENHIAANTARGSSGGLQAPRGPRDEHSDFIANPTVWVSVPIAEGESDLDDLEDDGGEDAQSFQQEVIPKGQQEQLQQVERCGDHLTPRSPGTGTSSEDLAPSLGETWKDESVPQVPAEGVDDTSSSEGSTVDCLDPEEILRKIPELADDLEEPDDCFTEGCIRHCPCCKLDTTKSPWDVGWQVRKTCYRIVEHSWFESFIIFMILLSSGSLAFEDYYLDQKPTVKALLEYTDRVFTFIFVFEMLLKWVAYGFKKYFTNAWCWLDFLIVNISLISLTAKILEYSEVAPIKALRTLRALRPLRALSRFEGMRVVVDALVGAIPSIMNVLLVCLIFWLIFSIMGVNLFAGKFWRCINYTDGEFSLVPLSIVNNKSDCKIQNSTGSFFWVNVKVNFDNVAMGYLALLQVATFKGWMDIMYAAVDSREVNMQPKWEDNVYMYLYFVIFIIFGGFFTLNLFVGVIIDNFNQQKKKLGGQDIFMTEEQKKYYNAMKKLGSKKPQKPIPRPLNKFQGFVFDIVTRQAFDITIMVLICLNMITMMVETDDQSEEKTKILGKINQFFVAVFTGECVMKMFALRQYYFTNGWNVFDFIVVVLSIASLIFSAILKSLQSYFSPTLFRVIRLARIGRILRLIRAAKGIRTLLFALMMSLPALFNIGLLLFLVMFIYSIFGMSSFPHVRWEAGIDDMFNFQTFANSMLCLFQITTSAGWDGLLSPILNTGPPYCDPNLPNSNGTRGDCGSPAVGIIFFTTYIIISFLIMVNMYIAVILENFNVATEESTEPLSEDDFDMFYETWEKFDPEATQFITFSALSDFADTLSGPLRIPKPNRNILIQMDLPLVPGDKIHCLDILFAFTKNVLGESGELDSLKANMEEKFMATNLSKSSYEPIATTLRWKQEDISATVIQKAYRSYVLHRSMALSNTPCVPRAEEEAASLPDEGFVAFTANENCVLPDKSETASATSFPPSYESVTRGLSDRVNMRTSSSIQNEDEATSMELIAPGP
T1 sequence (O75762 whole entry): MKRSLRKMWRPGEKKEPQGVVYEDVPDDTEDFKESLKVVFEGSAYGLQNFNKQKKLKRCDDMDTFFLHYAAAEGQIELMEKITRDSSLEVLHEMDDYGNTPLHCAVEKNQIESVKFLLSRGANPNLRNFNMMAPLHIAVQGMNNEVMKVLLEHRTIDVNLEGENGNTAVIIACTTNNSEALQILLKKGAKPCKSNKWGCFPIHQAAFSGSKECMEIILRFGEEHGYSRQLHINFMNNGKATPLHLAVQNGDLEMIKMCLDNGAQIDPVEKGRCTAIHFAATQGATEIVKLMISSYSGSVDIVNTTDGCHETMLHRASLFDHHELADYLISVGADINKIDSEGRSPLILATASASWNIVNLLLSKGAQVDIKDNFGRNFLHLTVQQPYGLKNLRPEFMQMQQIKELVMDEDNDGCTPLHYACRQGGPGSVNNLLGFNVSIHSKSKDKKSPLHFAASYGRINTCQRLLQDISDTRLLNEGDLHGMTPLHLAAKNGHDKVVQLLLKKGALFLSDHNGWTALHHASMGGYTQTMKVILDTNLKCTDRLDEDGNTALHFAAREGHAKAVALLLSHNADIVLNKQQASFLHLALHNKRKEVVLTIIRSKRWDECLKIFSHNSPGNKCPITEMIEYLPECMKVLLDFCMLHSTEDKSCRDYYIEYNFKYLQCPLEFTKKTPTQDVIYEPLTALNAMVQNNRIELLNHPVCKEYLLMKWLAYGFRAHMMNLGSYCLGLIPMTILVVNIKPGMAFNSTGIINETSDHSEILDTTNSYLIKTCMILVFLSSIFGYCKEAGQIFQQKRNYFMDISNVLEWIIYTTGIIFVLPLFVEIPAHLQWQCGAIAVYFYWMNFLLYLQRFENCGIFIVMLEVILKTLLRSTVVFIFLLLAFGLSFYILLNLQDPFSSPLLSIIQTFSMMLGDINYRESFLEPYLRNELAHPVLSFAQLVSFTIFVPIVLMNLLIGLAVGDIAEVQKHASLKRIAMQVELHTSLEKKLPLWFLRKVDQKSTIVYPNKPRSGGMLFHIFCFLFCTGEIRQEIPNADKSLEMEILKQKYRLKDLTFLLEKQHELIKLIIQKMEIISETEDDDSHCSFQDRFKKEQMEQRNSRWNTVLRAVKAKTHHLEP

COc1ccc([C@H]2CC(=O)c3c(O)cc(OC)cc3O2)cc1 [(−)-NRG-DM, (−)-naringenin 4′,7-dimethyl ether]
inhibitory ratio ([1]; 30 µM): 44 ± 3%
IDrug/IControl ([1]; 30 μM, HEK293): 0.56 ± 0.03
V1/2 of steady-state inactivation of Nav1.8 ([1]; 30 µM, control −48.58 ± 0.67 mV): −53.37 ± 0.70 mV
IC50 ([2]; Mus musculus, DRG neuron, n = 5): 5.1 ± 0.04 µM
reduction in IK currents ([2]; at plasma concentration (around 7 µM)): around 58%
V1/2 of activation, TTX-R currents ([3]; 30 μM, control −16.82 ± 0.72 mV): −20.14 ± 0.87 mV
V1/2 of steady-state inactivation, TTX-R currents ([3]; 30 µM, control −39.43 ± 0.66 mV): −49.99 ± 0.67 mV
effect on TRPA1 currents and AITC-induced TRPA1 currents [4]: did not enhance any TRPA1 currents or inhibit AITC-induced TRPA1 currents either
reduction of writhing number ([5]; 30 mg/kg i.p.): approximately 60%
reduction of writhing number ([5]; 50 mg/kg i.p.): ~80%
plasma concentration ([6]; 0.5~1.5 h after i.p. injection at 50 mg/kg): around 7 µM
concentration at 0.5 h ([6]; male, ICR, mouse, ip, plasma, 50 mg/kg i.p., 0.5 h, mean ± SEM): 2290 ± 183 ng/mL
concentration at 1 h ([6]; male, ICR, mouse, ip, plasma, 50 mg/kg i.p., 1 h, mean ± SEM): 2220 ± 1250 ng/mL
concentration at 1.5 h ([6]; male, ICR, mouse, ip, plasma, 50 mg/kg i.p., 1.5 h, mean ± SEM): 717 ± 222 ng/mL
Concentration (μM/L) ([6]; plasma, 50 mg/kg i.p., 0.5 h, mean ± SEM): 7.64 ± 0.61 µM
Concentration (μM/L) ([6]; plasma, 50 mg/kg i.p., 1 h, mean ± SEM): 7.39 ± 4.17 µM
Concentration (μM/L) ([6]; plasma, 50 mg/kg i.p., 1.5 h, mean ± SEM): 2.39 ± 0.74 µM
IC50 [7]: 119.9 ± 0.03 µM
Fall nFall /nTest ([8]; 100 mg/kg i.p., 0.5 h): 0/10
Motor Impairment (%) ([8]; 100 mg/kg i.p., 0.5 h): 0%
Fall nFall /nTest ([8]; 100 mg/kg i.p., 1 h): 0/10
Motor Impairment (%) ([8]; 100 mg/kg i.p., 1 h): 0%
ability to remain on the rotating rod ([8]; 100 mg/kg, 200 mg/kg, or 400 mg/kg i.p.): no significant effects
Fall nFall /nTest ([8]; 200 mg/kg i.p., 0.5 h): 1/10
Motor Impairment (%) ([8]; 200 mg/kg i.p., 0.5 h): 10%
Fall nFall /nTest ([8]; 200 mg/kg i.p., 1 h): 0/10
Motor Impairment (%) ([8]; 200 mg/kg i.p., 1 h): 0%
Fall nFall /nTest ([8]; 400 mg/kg i.p., 0.5 h): 0/10
Motor Impairment (%) ([8]; 400 mg/kg i.p., 0.5 h): 0%
Fall nFall /nTest ([8]; 400 mg/kg i.p., 1 h): 0/10
Motor Impairment (%) ([8]; 400 mg/kg i.p., 1 h): 0%
signs of toxicity ([8]; 100, 200, 400 mg/kg i.p., during rotarod test (0.5 and 1 h) and 24 h after administration): no sign of toxicity
